In paper PMC12040169 (PLOS Biology, 2025) one finds viability data, which are given here for 80 compounds.

The nature of one data set: in vitro. As to conditions: human, hela cells, % viability.
Regarding `COC(=O)C1(Cc2cc(-c3cccc(F)c3)no2)CCOCC1` [CBK285330], the viability at 28.5 h, 10 µM was 95.8%.
Same read-out and setting: the result for `O=C(c1ccccc1)N1C[C@H](c2ccsc2)[C@H]2CN(Cc3ccsc3)CC[C@H]21` [CBK285604] reads 118%.
Still for that read-out and setting: in the case of `CN(C)c1nc2c(c(-c3cncc(N)c3)n1)CCCC2` [CBK307503] it was 105%.
`c1csc(-c2ccn3c(n2)nc2ccccc23)c1` [CBK287976]: the viability at 28.5 h, 10 µM was found to be 83.9%.
On to `CC(=O)Nc1ccc(-c2ccc(C(=O)NCc3ccc(C(C)C)cc3)cn2)cc1` [CBK158857], for which the viability at 28.5 h, 10 µM is 101%.
As to `O=C(Cc1cccnc1)N1CCC(c2cccc(Cc3ccc(C(F)(F)F)cc3)n2)CC1` [CBK286223], the viability at 28.5 h, 10 µM amounted to 92.8%.
For the compound `OCCNc1cncc(-c2ccc3c(c2)OCO3)n1` [CBK065979], the viability at 28.5 h, 10 µM was 85.6%.
Consider `Cc1nn(-c2ccccc2)c(O)c1/C=N/c1ccccc1Sc1c(C)n[nH]c1C` [CBK262048], for which the viability at 28.5 h, 10 µM amounted to 89.1%.
On to `O=C(N[C@H]1C[C@H]2C(=O)NC[C@@H](CCC(=O)N3CCCCC3)N2C1)c1cccs1` [CBK289010], for which the viability at 28.5 h, 10 µM turned out to be 87.9%.
In the case of `O=C(C1CC1)N1C2CCC1Cn1c(nc3ccccc3c1=O)C2` (centres unmarked) [CBK284451], the viability at 28.5 h, 10 µM amounted to 92.2%.
Regarding `N/C(=N\C(=O)CN1C(=O)C2CCCCC2C1=O)Nc1nc2ccccc2s1` (centres unmarked) [CBK263877], the viability at 28.5 h, 10 µM stood at 92.4%.
As for `CCn1c(=O)n(CC(=O)N2CCCC2)c2cccnc21` [CBK283904], the viability at 28.5 h, 10 µM stood at 107%.
The same measure, in the same setting: the result for `O=C(NCc1ccccc1)c1ccncc1` [CBK200189] reads 108%; that for `COc1ccc(-n2c(SCc3nc4ccccc4[nH]3)nc3sc4c(c3c2=O)CCCC4)cc1` [CBK267558], 100%; that for `COc1ccc(NC(=O)c2ccc(-c3cnc(Nc4ccc(N5CCOCC5)cc4)c4nccn34)cc2)cc1` [CBK091240], 96.7%.
Same read-out and setting: the result for `NC(=O)c1ccccc1NC(=O)Cc1ccc2c(c1)CCCC2` [CBK298334] reads 88.9%.
Still for that read-out and setting: the result for `CSCCC(=O)N1CCC(Cn2cncn2)(C2CCCCC2)CC1` [CBK136799] reads 102%.
In the case of `C=CCN1C(=O)C2(CC(=O)N(C)C2=O)c2ccccc21` (centres unmarked) [CBK075137], the viability at 28.5 h, 10 µM came to 93.6%.
Regarding `Nc1cc2cccnc2nc1-c1cc(F)cc(F)c1` [CBK067604], the viability at 28.5 h, 10 µM turned out to be 88.3%.
On to `Cc1csc2ncc(C(=O)NCc3ccc4c(c3)OCO4)c(=O)n12` [CBK287292], for which the viability at 28.5 h, 10 µM turned out to be 109%.
`COC(=O)c1cc(-c2ccccc2)sc1NC(=O)c1cnccn1` [CBK268175]: the viability at 28.5 h, 10 µM stood at 93.5%.
Turning to `NC(=O)OC(c1ccccc1[N+](=O)[O-])P(=O)(c1ccccc1)c1ccccc1` (centres unmarked) [CBK261383], the viability at 28.5 h, 10 µM came out at 88.3%.
On to `CC(CO)(CO)NCc1ccc(-c2ccccc2)cc1` [CBK268325C], for which the viability at 28.5 h, 10 µM is 78.9%.
Take `Cc1ccnc(NCC2CCN(c3cc(=O)n4oc(C)cc4n3)C2)c1` (centres unmarked) [CBK305191]: the viability at 28.5 h, 10 µM was 84.6%.
As for `O=C(Cn1cnc2ccccc21)N1CCC(c2ccccc2)C1` (centres unmarked) [CBK281845], the viability at 28.5 h, 10 µM turned out to be 84.5%.
In the case of `CN(C)C(=O)Cn1c(=O)n(Cc2cccs2)c2ncccc21` [CBK283902], the viability at 28.5 h, 10 µM worked out at 81.7%.
For the compound `FC(F)(F)c1cccc(Nc2cncc(-c3cccs3)n2)c1` [CBK065750], the viability at 28.5 h, 10 µM was determined as 125%.
On the same count and under the same terms, the result for `CCn1ncc(CN2CCC(c3onc4c3CCCC4)CC2)c1C` [CBK284576] reads 90.2%.
For `c1c2c(cc3sc(N4CCOCC4)nc13)OCO2` [CBK287494], the viability at 28.5 h, 10 µM is 97.7%.
Take `Clc1cncc(NCCc2c[nH]c3ccccc23)n1` [CBK093514]: the viability at 28.5 h, 10 µM stood at 56.8%.
The same measure, in the same setting: the result for `O=C(O)c1c2c(nc3ccccc13)C(=Cc1ccc3c(c1)OCCO3)CC2` [CBK297479] reads 96.3%.
Turning to `Nc1ncc(-c2cc(C(F)(F)F)cc(C(F)(F)F)c2)nc1N1CCC[C@@H]1CO` [CBK063501], the viability at 28.5 h, 10 µM is 93.3%.
On to `CC(C)COC(=O)N1CCC2(CC1)CC(=O)N(Cc1ccc(S(C)(=O)=O)cc1)C2=O` [CBK155948], for which the viability at 28.5 h, 10 µM is 103%.
Take `O=C(CSC1c2ccccc2Sc2ccccc21)Nc1ccc(C(=O)O)cc1` [CBK267542]: the viability at 28.5 h, 10 µM was found to be 111%.
In the case of `COc1nn(CC(=O)NC2(C)CCC2)c(=O)c2ccccc12` [CBK281603], the viability at 28.5 h, 10 µM worked out at 83.2%.
`CSc1nnc(-c2cccs2)n1C` [CBK067702]: the viability at 28.5 h, 10 µM is 87.9%.
For the compound `Cc1cc(C(=O)CSc2nnc(-c3ccccc3F)n2CC(C)C)c(C)[nH]1` [CBK297877], the viability at 28.5 h, 10 µM came out at 85.1%.
Take `COCOc1ccc(-c2ncc(OCc3ccc4c(c3)OCO4)nc2N)cc1` [CBK145101]: the viability at 28.5 h, 10 µM was found to be 100%.
For the compound `O=C(CNS(=O)(=O)c1cc(Br)c(Cl)s1)N1CCOCC1` [CBK034474], the viability at 28.5 h, 10 µM is 100%.
For `CCOc1ccc(Cl)cc1S(=O)(=O)NCCO` [CBK269996], the viability at 28.5 h, 10 µM turned out to be 94%.
On to `CCOc1ccc(S(=O)(=O)N2CCN(Cc3cc(F)c(F)c(F)c3)CC2)c2cccnc12` [CBK062795], for which the viability at 28.5 h, 10 µM is 95.4%.
Same read-out and setting: in the case of `CC(C)Nc1nccnc1OCc1ccc(F)cc1` [CBK115644] it was 113%; in that of `Clc1ccc(CNC2CCCCC2NCc2ccc(Cl)nc2)cn1` (centres unmarked) [CBK025983], 82.7%.
Turning to `COC(=O)c1ccc(NC(=O)CC2Sc3ccc(C(F)(F)F)cc3NC2=O)cc1` (centres unmarked) [CBK264645], the viability at 28.5 h, 10 µM turned out to be 110%.
The same measure, in the same setting: the result for `CCCCNC(=O)NC1CCCC1` [CBK027084] reads 101%; that for `CC(C)(C)SCCNS(=O)(=O)c1ccc(Cl)c(Cl)c1` [CBK057015], 92.1%; that for `CC(Oc1ccc(Cl)cc1Cl)C(=O)Nc1ccc(N2CCN(C)CC2)c(Cl)c1` (centres unmarked) [CBK268563], 85%.
`COc1ccc(C(C)NC(=O)c2cn[nH]c2-c2ccc(Cl)cc2)cc1` (centres unmarked) [CBK288065]: the viability at 28.5 h, 10 µM was 102%.
As to `O=C(NCC1(c2ccccc2Cl)CC1)c1ccc(=O)n(CC(=O)N2CCCCC2)c1` [CBK286077], the viability at 28.5 h, 10 µM turned out to be 84.8%.
For `O=C(O)c1cc(-c2ccc(OC(F)F)cc2)[nH]n1` [CBK288022], the viability at 28.5 h, 10 µM turned out to be 87.1%.
Take `CCOC(=O)c1c(NC(=O)Cn2cnc3ccccc32)sc2c1CCCC2` [CBK260917]: the viability at 28.5 h, 10 µM stood at 106%.
The same measure, in the same setting: the result for `Nc1cc(S(=O)(=O)Nc2ccc(C(F)(F)F)cc2)ccc1N1CCCNCC1` [CBK001518C] reads 87.9%; that for `O=C1c2ccccc2CN1CCNS(=O)(=O)c1ccc2oc3ccccc3c2c1` [CBK264918], 98.9%.
Same read-out and setting: in the case of `CN(C)c1ccc(Nc2cc(-c3ccco3)ncn2)cc1` [CBK090946] it was 90.3%; in that of `C=C(C)Cn1nc(C)c(CN(C)CCN2CCCCC2)c1C` [CBK282483], 88.7%.
On to `COc1ccc(Cl)cc1NC(=O)C1CC(=O)N=C(N2CCOCC2)N1` (centres unmarked) [CBK268893], for which the viability at 28.5 h, 10 µM is 100%.
As for `Cc1ccc([N+](=O)[O-])cc1NC(=O)CN(Cc1ccc(Cl)cc1)S(C)(=O)=O` [CBK267981], the viability at 28.5 h, 10 µM turned out to be 87.8%.
As for `COCCn1ccc(NC(=O)N2CCCC(c3cc(F)ccc3F)C2)n1` (centres unmarked) [CBK305451], the viability at 28.5 h, 10 µM was 79.6%.
For `Cc1cccc(C)c1OCCOCC(O)CN1CCN(C)CC1` (centres unmarked) [CBK278206C], the viability at 28.5 h, 10 µM was 90.4%.
For `O=C(NC/C=C/c1cn(C2OC(CO)C(O)C2O)c(=O)[nH]c1=O)C(F)(F)F` (centres unmarked) [CBK201298], the viability at 28.5 h, 10 µM is 104%.
For `COc1cccc(CC(=O)N2[C@H](Cc3ccccc3)C[C@@H]3NCCCCC[C@H]32)c1` [CBK286030], the viability at 28.5 h, 10 µM turned out to be 105%.
The same measure, in the same setting: the result for `COc1ccc(CCOC(=O)Nc2cn(C)nc2C(F)(F)F)cc1OC` [CBK021070] reads 105%; that for `CCc1nc2ccc(C(=O)N3CCN(C(C)=O)CC3)cn2c1N(C)Cc1ccc(Cl)cc1` [CBK146718], 105%.
As to `Cc1ccc(S(=O)(=O)Nc2nc(C)cs2)cc1` [CBK102326], the viability at 28.5 h, 10 µM amounted to 100%.
On the same count and under the same terms, in the case of `Cc1cc(-c2cc(=O)n(CCc3ccccc3)nc2-c2ccco2)on1` [CBK282879] it was 105%; in that of `O=C(Nc1cccnc1)c1cnc(-c2ccc(Cl)cc2)c(-c2cccnc2)c1` [CBK037568], 102%.
On the same count and under the same terms, the result for `CNC(=O)NC(=O)C(C)NCC1(c2cc(C)ccc2OC)CCOCC1` (centres unmarked) [CBK306318] reads 79.1%; that for `CCCCC(=O)/N=C(\N)Nc1nc2ccccc2o1` [CBK287937], 87.8%; that for `Nc1ccc(Oc2ccc3nc4c5cc(I)ccc5c5ccc(I)cc5c4nc3c2)cc1` [CBK261978], 87.6%.
Regarding `CC1(C(=O)O)NC(c2ccccc2O)C2C(=O)N(c3ccccc3[N+](=O)[O-])C(=O)C21` (centres unmarked) [CBK264979], the viability at 28.5 h, 10 µM turned out to be 107%.
Regarding `N=C(N)NCCc1ccc(Cl)cc1` [CBK024074G], the viability at 28.5 h, 10 µM was found to be 105%.
In the case of `COC(=O)c1ccc(NC(=O)CSc2nnc(-c3ccncc3)s2)cc1` [CBK269239], the viability at 28.5 h, 10 µM was found to be 103%.
Same read-out and setting: the result for `O=C(CC1CCCC1)NCCn1nc(-c2cccs2)oc1=O` [CBK282386] reads 87.2%; that for `CCn1c2cc(C)oc2c2cnn(CC(=O)N(C)C)c(=O)c21` [CBK284224], 83.4%; that for `COc1ccc(NC(=O)CSc2cc(-n3cccn3)ncn2)cc1` [CBK287819], 116%.
On to `COc1ccccc1C(=O)Nc1ccccc1C(=O)Nc1ccc(C(=O)O)cc1` [CBK268625], for which the viability at 28.5 h, 10 µM is 94.7%.
With `CC(=O)c1ccccc1NC(=O)c1cc2ccc(F)cc2nc1C` [CBK297929], the viability at 28.5 h, 10 µM was determined as 89.2%.
For `Cc1cc(NS(=O)(=O)c2ccc(NC(=O)C(c3ccccc3)c3ccccc3)cc2)no1` [CBK085112], the viability at 28.5 h, 10 µM was determined as 94%.
`O=[N+]([O-])c1cc(S(=O)(=O)Nc2ccc(C(O)(C(F)(F)F)C(F)(F)F)cc2)ccc1Cl` [CBK062106]: the viability at 28.5 h, 10 µM came to 92.9%.

The same data set, now with this note: human, hela cells, % viability, bulk resorufin, single well.
In the case of `CCOC(=O)C1(c2ccccc2)CCN(C(=O)Cc2c[nH]cn2)CC1` [CBK132205], the viability at 28.5 h, 10 µM came out at 94.3%.
